For orientation: IC50 means the concentration at which inhibition is half-maximal.

We go through 1 molecule from patent US4444775A, “Substituted imidazo[1,5-A]pyridines” (Ciba-Geigy Corporation, priority 1982, dated 1984).

Experiment [1] has as its target T1, prostacyclin (PGI2) synthetase (microsomal fraction of bovine aorta) (Bos taurus, UniProt Q29626).
T1 construct: crude PGI2 synthetase in the form of a microsomal fraction of bovine aorta; from tissue; host or cells: bovine aorta, microsomal fraction
T1 sequence (Q29626 1-500): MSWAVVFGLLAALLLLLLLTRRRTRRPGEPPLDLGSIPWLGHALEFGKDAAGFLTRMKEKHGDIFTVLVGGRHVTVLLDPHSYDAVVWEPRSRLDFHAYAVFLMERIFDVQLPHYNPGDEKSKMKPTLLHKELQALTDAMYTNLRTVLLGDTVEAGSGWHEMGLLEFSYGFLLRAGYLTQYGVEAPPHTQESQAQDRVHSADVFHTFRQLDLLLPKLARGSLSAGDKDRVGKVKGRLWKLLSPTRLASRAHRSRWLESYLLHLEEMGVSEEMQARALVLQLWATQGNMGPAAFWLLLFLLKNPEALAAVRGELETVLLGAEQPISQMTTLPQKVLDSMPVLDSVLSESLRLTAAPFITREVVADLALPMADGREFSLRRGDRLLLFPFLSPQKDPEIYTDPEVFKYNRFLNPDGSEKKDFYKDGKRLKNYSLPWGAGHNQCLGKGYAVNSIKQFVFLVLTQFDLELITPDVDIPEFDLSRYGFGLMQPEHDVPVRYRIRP
Description: in-vitro effect on prostacyclin (PGI2) synthetase (6-keto-PGF1α/PGE2 ratio). Type of experiment: biochemical. To be noted: read-out: IC50 for inhibition of prostacyclin synthetase. Here is the method:
The in-vitro effect on prostacyclin (PGI2) synthetase is measured analogous to the method of Sun et al., Prostaglandins 14, 1055 (1977);
The testing procedure is as follows:
^14 C-Arachidonic acid is incubated with an enzyme mixture consisting of solubilized and partially purified prostaglandin cyclo-oxygenase from sheep seminal vesicles and crude PGI2 synthetase in the form of a microsomal fraction of bovine aorta.
Test compound (dissolved in buffer, or if necessary, in a small amount of ethanol) is placed in the incubation medium. The reaction mixture is incubated in 100 mM Tris HCl (pH 7.5) for 30 minutes at 37° C., acidified to pH 3 and extracted into ethyl acetate. The extract is evaporated to dryness; the residue is dissolved in acetone, spotted on thin-layer plates and chromatographed in a solvent system described by Sun et al. The radioactive zones are located with a scanner; those corresponding to 6-keto-PGF1 α (a stable end product of prostacyclin biotrasformation) and PGE2 are transferred to liquid scintillation vials and counted. The ratio of counts for 6-keto-PGF1 α/PGE2 is calculated for each concentration of test compound used. IC50 values for inhibition are determined graphically as the concentration of test compound at which the ratio of 6-keto-PGF1 α/PGE2 is reduced to 50% of the control value.

Another experiment concerns bleeding time. The experiment is described as follows: prolongation of bleeding time in the rat. Format: in vivo. As to conditions: rats, dose of about 1 mg/kg i.p. or lower. The source says:
For example, in thromboembolism, specific inhibition of the enzyme thromboxane synthetase reduces arachidonic acid induced platelet aggregation involved in clot formation. Experimentally, prolongation of bleeding time in the rat is indicative of a beneficial antithrombotic effect.

The test system of experiment [2] is plasma thromboxane B2 and 6-keto-PGF1α. Description: reduction of plasma levels of thromboxane in vivo after arachidonic acid challenge. To be noted: guinea pig. Here is the method: The reduction of plasma levels of thromboxane is determined in vivo on administration of the test compound to guinea pigs in the following manner:
Guinea pigs are dosed with vehicle or test drug and injected intraperitoneally with arachidonic acid (40 mg/kg) 2 hours later. Blood is collected for analysis 1 hour after the arachidonic acid challenge. A single aliquot of each plasma sample is assayed for thromboxane B2 and another aliquot for 6-keto-PGF1 α, the stable metabolites of thromboxane A2 and prostacyclin (PGI2) respectively.

Experiment [3] concerns arachidonic acid induced pulmonary obstruction. Description: protection against sudden death due to arachidonic acid induced pulmonary obstruction. Format: in vivo. To be noted: mice, orally, 100 mg/kg.
Experiment [4] has as its target T2, thromboxane synthetase from lysed human platelets (Homo sapiens, UniProt P24557).
T2 construct: crude microsomal preparation of thromboxane synthetase from lysed human platelets; from tissue; host or cells: human platelets, lysed; crude microsomal preparation
T2 sequence (P24557 1-533): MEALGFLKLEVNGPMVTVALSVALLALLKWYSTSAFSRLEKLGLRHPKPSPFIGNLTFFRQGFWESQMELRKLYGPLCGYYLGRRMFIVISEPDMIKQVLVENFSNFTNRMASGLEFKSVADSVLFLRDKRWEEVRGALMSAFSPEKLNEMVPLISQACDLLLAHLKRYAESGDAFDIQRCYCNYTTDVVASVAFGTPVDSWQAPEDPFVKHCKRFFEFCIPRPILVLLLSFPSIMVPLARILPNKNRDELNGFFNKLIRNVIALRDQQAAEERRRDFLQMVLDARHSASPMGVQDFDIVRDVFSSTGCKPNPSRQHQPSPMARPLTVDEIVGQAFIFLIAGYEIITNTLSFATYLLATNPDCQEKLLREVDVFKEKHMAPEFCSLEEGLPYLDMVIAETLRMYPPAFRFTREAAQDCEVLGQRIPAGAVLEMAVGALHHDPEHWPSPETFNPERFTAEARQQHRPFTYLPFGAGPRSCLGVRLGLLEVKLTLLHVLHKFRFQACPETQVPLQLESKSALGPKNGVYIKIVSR
The experiment is described as follows: in vitro inhibition of the thromboxane synthetase enzyme (TxB2/PGF2α+β ratio from 14C-arachidonic acid). Format: biochemical. As to conditions: human platelet microsomal enzyme, 30 minutes incubation. The method, then: Res. Comm. 74, 1432 (1977); the testing procedure is as follows:
The test compound (dissolved in buffer, or if necessary, in a small amount of ethanol) is added to the incubation medium. […] The radioactive products and excess substrate are extracted into ethyl acetate; the extract is evaporated to dryness; the residue is dissolved in acetone, spotted on thin-layer plates and chromatographed in the solvent system toluene: acetone: glacial acetic acid (100 volumes: 100 volumes: 3 volumes).

Experiment [5] has as its target T3, prostaglandin cyclooxygenase (sheep seminal vesicle microsomes) (Ovis aries, UniProt P05979).
T3 construct: Lyophilized sheep seminal vesicle microsomes are utilized as the prostaglandin-synthesizing enzyme preparation; from tissue; host or cells: sheep seminal vesicle microsomes, lyophilized
T3 sequence (P05979 25-600): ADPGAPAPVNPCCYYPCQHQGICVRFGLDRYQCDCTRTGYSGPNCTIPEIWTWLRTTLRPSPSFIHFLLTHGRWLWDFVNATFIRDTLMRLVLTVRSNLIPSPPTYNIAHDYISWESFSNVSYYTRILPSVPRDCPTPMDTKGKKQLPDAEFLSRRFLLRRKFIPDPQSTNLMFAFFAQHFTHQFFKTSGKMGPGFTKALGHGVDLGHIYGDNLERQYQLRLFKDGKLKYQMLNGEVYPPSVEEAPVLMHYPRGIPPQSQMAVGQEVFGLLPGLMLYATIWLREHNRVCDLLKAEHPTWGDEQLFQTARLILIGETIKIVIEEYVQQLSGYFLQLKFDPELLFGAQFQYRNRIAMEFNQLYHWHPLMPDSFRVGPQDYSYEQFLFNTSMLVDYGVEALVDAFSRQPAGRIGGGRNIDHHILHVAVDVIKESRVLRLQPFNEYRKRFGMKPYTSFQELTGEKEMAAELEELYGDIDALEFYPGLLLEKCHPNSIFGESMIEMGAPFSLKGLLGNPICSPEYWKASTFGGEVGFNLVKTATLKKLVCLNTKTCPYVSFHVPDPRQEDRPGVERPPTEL
The experiment is described as follows: in-vitro effect on prostaglandin cyclooxygenase (conversion of 14C-arachidonic acid to PGE2). Format: biochemical. As to conditions: read-out: IC50 for inhibition of cyclooxygenase. Here is the method: The in-vitro effect on prostaglandin cyclooxygenase is measured by a modification of the method of Takeguchi et al described in Biochemistry 10, 2372 (1971); the testing procedure is as follows: Lyophilized sheep seminal vesicle microsomes are utilized as the prostaglandin-synthesizing enzyme preparation. The conversion of ^14 C-arachidonic acid to PGE2 is measured. Test compounds (dissolved in buffer, or if necessary, in small amount of ethanol) are added to the incubation mixture. The prostaglandins are extracted and separated by thin-layer chromatography; the plates are scanned, the radioactive zones corresponding to PGE2 are transferred to liquid scintillation vials and counted for radioactivity. IC50 values for inhibition are determined graphically as the concentration of test compound causing a 50% reduction in the amount of PGE2 synthesized.

Turning to `O=C(O)CCCCCc1cccc2cncn12` [Example 2, 5-(5-carboxypentyl)-imidazo[1,5-a]pyridine], the IC50 in experiment [1] is above 100 µM; in experiment [4], around 0.003 µM; in experiment [5], above 100 µM. Further, the bleeding time result with bleeding time is “prolongs bleeding time”. Besides, the “decrease with respect to prostacyclin (plasma 6-keto-PGF1α)” value in experiment [2] (oral dose 0.25 mg/kg or higher doses) was “no significant decrease”. For the same molecule, the “reduction of plasma levels of thromboxane B2” value in experiment [2] (oral dose as low as 0.25 mg/kg) is recorded as “over 50%”. The “protection against sudden death” value in experiment [3] was “protects against sudden death”.
